Where a name gives a salt, the structure may show the parent alone.
Key:
[1] = system: MRSA strain USA300 Pvra-lux; format: cell-based, Staphylococcus aureus; settings: compound 10 μM + oxacillin 2 μg/mL; for RG avg (relative growth): ratio of OD600 to oxacillin alone, four runs
Experimental: (§1) In the secondary screen each microtiter plate contained either cells in TSB alone (16 replicates), cells with oxacillin (2 μg/mL, 31 replicates), or cells with test compound and oxacillin (2 μg/mL, 49 wells). Each compound was assayed in four separate biological replicates.
(§2) All compounds classified in the primary screen as synergists that were vraSR-stimulating or -repressing (as shown in Table 8) were screened in a secondary assay for their effects on both growth and Pvra::lux induction by oxacillin. […] Each compound was tested four separate times at 10 μM in the presence of oxacillin (2 μg/mL) and luminescence was measured every 15 minutes. Relative growth (RG) and relative luminescence (RL) was calculated as the ratio between the OD600 or max LU value in the presence of compound and oxacillin over the average from pooled control values obtained from the same plate. […] Compounds that produced an average RG (ratio of the OD600 of the culture grown with test compound combined with oxacillin to that of oxacillin alone) of <0.8 were classified as oxacillin synergists or potentiators. The relative luminescence (RL) was the ratio of the LU produced in the presence of the test compound combined with oxacillin to that produced by oxacillin alone. Compounds were classified as “vraSR repressors” (mean RL of <0.8), “vraSR stimulators”, (mean RL>1.2), and “vraSR neutral” (mean RL between 0.80-1.2). […] In contrast, 34 compounds had no effect on growth in the presence of oxacillin (“un” in the OD600 category). Among the oxacillin potentiators, there were 2 vraSR stimulators, 3 vraSR neutral compounds and 10 vraSR repressors.

[2] = system: vraSR transcription (Pvra::lux); format: cell-based, Staphylococcus aureus; settings: compound 10 μM + oxacillin 2 μg/mL; for RL avg (relative luminescence): ratio of LU to oxacillin alone, four runs
Experimental: as §1, §2

| SMILES | OD600 category [1] | RG avg (relative growth) [1] | Effect on vraSR transcription [2] | RL avg (relative luminescence) [2] |
| --- | --- | --- | --- | --- |
| C(=C\c1ccccc1)/CN1CCN(C(c2ccccc2)c2ccccc2)CC1 [Cinnarizine] | un (no effect on growth in the presence of oxacillin (“un” in the OD600 category)) | 0.97 | neutral (“vraSR neutral” (mean RL between 0.80-1.2)) | 0.94 |
| C#C[C@]1(O)CC[C@H]2[C@@H]3CCc4cc(OC)ccc4[C@H]3CC[C@@]21C [Ethynylestradiol 3-methyl ether] | un (no effect on growth in the presence of oxacillin (“un” in the OD600 category)) | 0.95 | repress (“vraSR repressors” (mean RL of <0.8)) | 0.97 |
| CCn1nc(C(=O)O)c(=O)c2cc3c(cc21)OCO3 [Cinoxacin] | un (no effect on growth in the presence of oxacillin (“un” in the OD600 category)) | 1.05 | neutral (“vraSR neutral” (mean RL between 0.80-1.2)) | 1.03 |
| C=C(C)[C@@H]1CC[C@]2(C(=O)O)CC[C@]3(C)[C@H](CC[C@@H]4[C@@]5(C)CC[C@H](O)C(C)(C)[C@@H]5CC[C@]43C)[C@@H]12 [Betulinic acid] | un (no effect on growth in the presence of oxacillin (“un” in the OD600 category)) | 0.87 | neutral (“vraSR neutral” (mean RL between 0.80-1.2)) | 0.83 |
| O=C(CCCN1CC=C(n2c(=O)[nH]c3ccccc32)CC1)c1ccc(F)cc1 [Droperidol] | un (no effect on growth in the presence of oxacillin (“un” in the OD600 category)) | 1.02 | neutral (“vraSR neutral” (mean RL between 0.80-1.2)) | 0.91 |
| COc1cccc2c1C(=O)c1c(O)c3c(c(O)c1C2=O)C[C@@](O)(C(C)=O)C[C@@H]3O[C@H]1C[C@H](N)[C@H](O)[C@H](C)O1 [Daunorubicin hydrochloride] | un (no effect on growth in the presence of oxacillin (“un” in the OD600 category)) | 0.98 | repress (“vraSR repressors” (mean RL of <0.8)) | 1.00 |
| COc1ccc(-c2cc(=O)c3c(O)cc(O)cc3o2)cc1 [Acacetin] | un (no effect on growth in the presence of oxacillin (“un” in the OD600 category)) | 0.91 | neutral (“vraSR neutral” (mean RL between 0.80-1.2)) | 0.88 |
| CN(C)CCCN1c2ccccc2Sc2ccccc21 [Promazine hydrochloride] | un (no effect on growth in the presence of oxacillin (“un” in the OD600 category)) | 1.09 | neutral (“vraSR neutral” (mean RL between 0.80-1.2)) | 1.08 |
| CCCC(=O)Nc1ncnc2c1ncn2[C@@H]1O[C@@H]2COP(=O)(O)O[C@H]2[C@H]1OC(=O)CCC [Bucladesine sodium salt] | un (no effect on growth in the presence of oxacillin (“un” in the OD600 category)) | 1.02 | neutral (“vraSR neutral” (mean RL between 0.80-1.2)) | 0.94 |
| Cc1ccnc(NS(=O)(=O)c2ccc(N)cc2)n1 [Sulfamerazine] | un (no effect on growth in the presence of oxacillin (“un” in the OD600 category)) | 0.99 | neutral (“vraSR neutral” (mean RL between 0.80-1.2)) | 1.01 |
| CCN(CC)CCc1nc(-c2ccccc2)no1.O=C(O)CC(O)(CC(=O)O)C(=O)O [Oxalamine citrate salt] | un (no effect on growth in the presence of oxacillin (“un” in the OD600 category)) | 1.03 | neutral (“vraSR neutral” (mean RL between 0.80-1.2)) | 1.00 |
| O=C1c2c(O)ccc(O)c2C(=O)c2c(NCCNCCO)ccc(NCCNCCO)c21 [Mitoxantrone dihydrochloride] | un (no effect on growth in the presence of oxacillin (“un” in the OD600 category)) | 0.94 | neutral (“vraSR neutral” (mean RL between 0.80-1.2)) | 0.83 |
| C[N+]12CCC(CC1)C(OC(=O)C(O)(c1ccccc1)c1ccccc1)C2 (stereo not drawn) [Clidinium bromide] | un (no effect on growth in the presence of oxacillin (“un” in the OD600 category)) | 0.97 | neutral (“vraSR neutral” (mean RL between 0.80-1.2)) | 0.95 |
| CCN(CC)CCOc1ccc(C(=C(Cl)c2ccccc2)c2ccccc2)cc1 (racemic) [Clomiphene citrate (Z,E), 2-(4-(2-chloro-1,2-diphenylethenyl)phenoxy)-N,N-diethyl-ethanamine] | inhibited (of <0.8 were classified as oxacillin synergists or potentiators) | 0.68 | repress (“vraSR repressors” (mean RL of <0.8)) | 0.39 |
| CC1CS(=O)(=O)CCN1/N=C/c1ccc([N+](=O)[O-])o1 (stereo not drawn) [Nifurtimox] | un (no effect on growth in the presence of oxacillin (“un” in the OD600 category)) | 0.97 | repress (“vraSR repressors” (mean RL of <0.8)) | 0.95 |
| CC(Oc1ccccc1)C(=O)N[C@@H]1C(=O)N2[C@@H]1SC(C)(C)[C@@H]2C(=O)O (stereo partly drawn) [Phenethicillin potassium salt] | un (no effect on growth in the presence of oxacillin (“un” in the OD600 category)) | 0.94 | neutral (“vraSR neutral” (mean RL between 0.80-1.2)) | 0.88 |
| N=C(N)NC(=O)Cc1c(Cl)cccc1Cl [Guanfacine hydrochloride] | un (no effect on growth in the presence of oxacillin (“un” in the OD600 category)) | 0.88 | neutral (“vraSR neutral” (mean RL between 0.80-1.2)) | 0.79 |
| N[C@@H](Cc1cc(I)c(Oc2ccc(O)c(I)c2)c(I)c1)C(=O)O [Liothyronine] | un (no effect on growth in the presence of oxacillin (“un” in the OD600 category)) | 0.88 | neutral (“vraSR neutral” (mean RL between 0.80-1.2)) | 0.87 |
| CC1(C)S[C@@H]2[C@H](NC(=O)[C@H](NC(=O)N3CCNC3=O)c3ccccc3)C(=O)N2[C@H]1C(=O)O [Azlocillin sodium salt] | un (no effect on growth in the presence of oxacillin (“un” in the OD600 category)) | 0.91 | neutral (“vraSR neutral” (mean RL between 0.80-1.2)) | 0.78 |
| CCCCN(CCCC)CCCOC(=O)c1ccc(N)cc1 [Butacaine] | un (no effect on growth in the presence of oxacillin (“un” in the OD600 category)) | 1.03 | neutral (“vraSR neutral” (mean RL between 0.80-1.2)) | 0.98 |
| C[C@@H]1[C@H](O)[C@@H](C)/C=C/C=C/CC/C=C/C=C/C=C/C=C/C(O[C@H]2O[C@H](C)[C@@H](O)[C@H](N)[C@@H]2O)CC2O[C@](O)(CC(O)C(O)CCC(O)CC(O)CC(O)CC(=O)O[C@H]1C)CC(O)C2C(=O)O (stereo partly drawn) [Nystatine] | un (no effect on growth in the presence of oxacillin (“un” in the OD600 category)) | 1.00 | neutral (“vraSR neutral” (mean RL between 0.80-1.2)) | 1.04 |

From patent US20150283120A1, “ANTIBIOTIC METHODS AND COMPOSITIONS FOR BACTERIA INFECTIONS” (THE UNIVERSITY OF CHICAGO, priority 2012, published 2015)
